This is an account of results in ChEMBL document CHEMBL3739349, “Cytotoxic Clerodane Diterpenoids from the Leaves of Casearia grewiifolia” (J Nat Prod, 2015).

One data set has as its system KB. Nature of the data set: Cytotoxicity against human KB cells assessed as growth inhibition after 72 hrs by neutral red staining based colorimetric assay. The data set is classed as functional, cell-based.
Data set [1] in a line: Cytotoxicity against mouse NIH/3T3 cells assessed as growth inhibition after 72 hrs by neutral red staining based colorimetric assay. The data set is classed as cell-based. To be noted: NIH3T3, 72 h.
The test system of the next data set is MCF7. Nature of the data set: Cytotoxicity against human MCF7 cells assessed as growth inhibition after 72 hrs by neutral red staining based colorimetric assay. The data set is classed as functional, cell-based. To be noted: MCF7, 72 h.
Data set [2] can be described thus: Cytotoxicity against mouse NIH/3T3 cells assessed as growth inhibition at 100 uM after 72 hrs by neutral red staining based colorimetric assay. The data set is classed as cell-based. To be noted: nih3t3, 72 h.
Another data set relates to Lu1. Nature of the data set: Cytotoxicity against human Lu1 cells assessed as growth inhibition after 72 hrs by neutral red staining based colorimetric assay. The data set is classed as functional, cell-based. To be noted: Lu1, 72 h.
The subject of another data set is HepG2. The experiment in a line: Cytotoxicity against human HepG2 cells assessed as growth inhibition after 72 hrs by neutral red staining based colorimetric assay. The data set is classed as functional, cell-based. To be noted: HepG2, 72 h.

Take `C=CC(=C)CC[C@]1(C)[C@H](C)[C@@H](OC(=O)/C=C/c2ccc(O)cc2)[C@H](O)[C@@]23C(=C[C@H](OC(=O)CCC)C[C@@H]12)[C@H](OC)O[C@H]3OC`: the IC50 (usually the concentration at which inhibition is half-maximal) is 6200 nM with KB; > 10000 nM in data set [1]; > 10000 nM in the data set on MCF7; > 10000 nM in the data set with Lu1; 7000 nM with HepG2. In data set [2], the Activity result is listed as “Non-toxic”.

On to `C=CC(=C)CC[C@]1(C)[C@H](C)[C@@H](OC(=O)/C=C/c2ccc(O)cc2)[C@H](O)[C@@]23C(=C[C@H](OC(=O)CC(C)C)C[C@@H]12)[C@H](OC)O[C@H]3OC(C)=O`, for which the IC50 (in the data set on KB; in data set [1]; with MCF7; with Lu1; in the data set with HepG2) was > 10000 nM in each case.

As for `C=CC(=C)CC[C@]1(C)[C@H](C)C[C@H](O)[C@@]23C(=C[C@H](OC(=O)CCC)C[C@@H]12)[C@@H](OC(C)=O)O[C@H]3OC(C)=O` [CASEANIGRESCEN D], the IC50 is 500 nM with KB; 300 nM in data set [1]; 800 nM in the data set on MCF7; 900 nM with Lu1; 300 nM with HepG2.

As for `Cc1c2ccncc2c(C)c2c1[nH]c1ccccc12` [ELLIPTECINE], the IC50 in the data set on KB came to 1400 nM; in data set [1], 1300 nM; with MCF7, 900 nM; in the data set with Lu1 it was 1200 nM; with HepG2 it was 1500 nM.
